Consider two molecules from patent US20100292231A1, “Indazole Compounds for Treating Inflammatory Disorders, Demyelinating Disorders and Cancers” (priority 2007, published 2010).

pEC50: −log10 of the molar value. Where two headings read alike, the source gives them in different places. Where only a bound is given, the exact number is not on record here.

In general, pEC50 refers to −log10 of the EC50, conventionally taken in molar units.

Assay in all cases: SelectScreen kinase specificity survey
Holding throughout (format): biochemical

In one assay the target is T1, DYRK1B (Homo sapiens, UniProt Q9Y463).
T1 construct: purchased Invitrogen (SelectScreen platform)
Conditions: estimated, abridged dose response curve, read-out: Kinase inhibitory activity EC50. As for the experimental part:
(§1) Testing of the compounds described in this invention was carried out using the SelectScreen™ platform from Invitrogen, Inc. (Carlsbad. Calif., USA) and the details of its performance are readily viewed via the web by linking to: http://www.invitrogen.com/downloads/SelectScrn_Brochure.pdf.
(§2) Briefly, the approach is based on treating each specific kinase with a unique substrate and optical reporter system in the presence of ATP at 100 micromolar. In controls, the substrate is phosphorylated and a baseline optimal response is recorded.
(§3) The compounds were then re-tested by adding graded amounts of putative inhibitor which were added in 5 separate increments to generate a dose response curve. The latter is obtained by fitting to a 4 parameter Hill equation, a sigmoid saturation equation.
(§4) The same assay system described in Example 2 can be applied in the determination of kinase specificity. It is well understood by medicinal chemists in the development of kinase inhibitors that the resulting molecules often lack specificity. Not only are homologous kinases inhibited by the same class of compounds, but also non-homologous kinases can be affected by allosteric, induced, activated vs inactivated conformation, and protein folding interactions with the putative inhibitor, which otherwise had been designed to be specific. These off target effects are difficult to predict and can only be ruled in or out by empirically surveying a large set of kinases. It is also understood that changes to scaffolds and variation in their chemical decorations may influence the extent of promiscuity in the patterns of kinase inhibition across kinase classes.
(§5) The following experiment was conducted to address this issue. The indazole compound (IV), described in Example 2 and representative of the new genus was tested along with Symadex against a panel of 230 kinases representative of all known kinases classes. Included in the survey were the Flt3, its mutant, and close relatives in the Class III receptor tyrosine kinase class, together with serine-threonine kinases and atypical kinases many of which share no homology of active site with Flt3 as shown, for example, in the respective “genecard” for each kinase and available for inspection at on the web at http://www.genecards.org/.
(§6) Table 3 lists the estimated EC50 values from an abridged dose response curve for Symadex (C-1311) and CF-123. The kinases are listed alphabetically by Group and Family.

Another assay concerns the target T2, RET (Homo sapiens, UniProt P07949).
T2 construct: purchased Invitrogen (SelectScreen)
Conditions: estimated, abridged dose response curve, read-out: Kinase inhibitory activity EC50. As for the experimental part:
as §1, §2, §3, §4, §5, §6

The target of a further assay is T3, FES (FPS) (Homo sapiens, UniProt P07332).
T3 construct: purchased Invitrogen (SelectScreen service)
Conditions: estimated, abridged dose response curve, read-out: Kinase inhibitory activity EC50. Here is the method: as §1, §2, §3, §4, §5, §6

The next assay addresses T4, PRKD1 (PKC mu, PKD1) (Homo sapiens, UniProt Q15139).
T4 construct: purchased Invitrogen, Inc. (SelectScreen platform)
Conditions: estimated, abridged dose response curve, read-out: Kinase inhibitory activity EC50. As for the experimental part: as §1, §2, §3, §4, §5, §6

For the next assay, the target named is T5, MAP4K4 (HGK, ZC1) (Homo sapiens, UniProt O95819).
T5 construct: purchased Invitrogen (SelectScreen platform)
Conditions: estimated, abridged dose response curve, read-out: Kinase inhibitory activity EC50. Here is the method: as §1, §2, §3, §4, §5, §6

In the next assay the target is T6, DYRK3 (Homo sapiens, UniProt O43781).
T6 construct: purchased Invitrogen (SelectScreen platform)
Conditions: estimated, abridged dose response curve, read-out: Kinase inhibitory activity EC50. Here is the method: as §1, §2, §3, §4, §5, §6

The next assay has as its target T7, ABL1 (Homo sapiens, UniProt P00519).
T7 construct: purchased Invitrogen (SelectScreen platform)
Conditions: estimated, abridged dose response curve, read-out: Kinase inhibitory activity EC50. Here is the method:
as §1, §2, §3, §4, §5, §6

The target of a further assay is T8, CAMK2D (CaMKII delta) (Homo sapiens, UniProt Q13557).
T8 construct: purchased Invitrogen, Inc. (SelectScreen platform)
Conditions: estimated, abridged dose response curve, read-out: Kinase inhibitory activity EC50. Here is the method:
as §1, §2, §3, §4, §5, §6

For a further assay, the target named is T9, GRK5 (Homo sapiens, UniProt P34947).
T9 construct: purchased Invitrogen (SelectScreen platform)
Here is the method:
as §1, §2, §3, §4, §5, §6

In another assay the target is T10, NEK6 (Homo sapiens, UniProt Q9HC98).
T10 construct: purchased Invitrogen, Inc. (SelectScreen service)
Conditions: estimated, abridged dose response curve, read-out: Kinase inhibitory activity EC50. Here is the method:
as §1, §2, §3, §4, §5, §6

A further assay addresses T11, BRAF V599E (Homo sapiens, UniProt P15056, V600E).
T11 construct: purchased Invitrogen, Inc. (SelectScreen platform)
Conditions: estimated, abridged dose response curve, read-out: Kinase inhibitory activity EC50. Here is the method:
as §1, §2, §3, §4, §5, §6

For the next assay, the target named is T12, MAPK1 (ERK2) (Homo sapiens, UniProt P28482).
T12 construct: purchased Invitrogen (SelectScreen platform)
Conditions: estimated, abridged dose response curve, read-out: Kinase inhibitory activity EC50. As for the experimental part:
as §1, §2, §3, §4, §5, §6

Another assay has as its target T13, FLT3 (Homo sapiens, UniProt P36888).
T13 construct: purchased Invitrogen (SelectScreen platform)
T13 sequence (P36888 27-993): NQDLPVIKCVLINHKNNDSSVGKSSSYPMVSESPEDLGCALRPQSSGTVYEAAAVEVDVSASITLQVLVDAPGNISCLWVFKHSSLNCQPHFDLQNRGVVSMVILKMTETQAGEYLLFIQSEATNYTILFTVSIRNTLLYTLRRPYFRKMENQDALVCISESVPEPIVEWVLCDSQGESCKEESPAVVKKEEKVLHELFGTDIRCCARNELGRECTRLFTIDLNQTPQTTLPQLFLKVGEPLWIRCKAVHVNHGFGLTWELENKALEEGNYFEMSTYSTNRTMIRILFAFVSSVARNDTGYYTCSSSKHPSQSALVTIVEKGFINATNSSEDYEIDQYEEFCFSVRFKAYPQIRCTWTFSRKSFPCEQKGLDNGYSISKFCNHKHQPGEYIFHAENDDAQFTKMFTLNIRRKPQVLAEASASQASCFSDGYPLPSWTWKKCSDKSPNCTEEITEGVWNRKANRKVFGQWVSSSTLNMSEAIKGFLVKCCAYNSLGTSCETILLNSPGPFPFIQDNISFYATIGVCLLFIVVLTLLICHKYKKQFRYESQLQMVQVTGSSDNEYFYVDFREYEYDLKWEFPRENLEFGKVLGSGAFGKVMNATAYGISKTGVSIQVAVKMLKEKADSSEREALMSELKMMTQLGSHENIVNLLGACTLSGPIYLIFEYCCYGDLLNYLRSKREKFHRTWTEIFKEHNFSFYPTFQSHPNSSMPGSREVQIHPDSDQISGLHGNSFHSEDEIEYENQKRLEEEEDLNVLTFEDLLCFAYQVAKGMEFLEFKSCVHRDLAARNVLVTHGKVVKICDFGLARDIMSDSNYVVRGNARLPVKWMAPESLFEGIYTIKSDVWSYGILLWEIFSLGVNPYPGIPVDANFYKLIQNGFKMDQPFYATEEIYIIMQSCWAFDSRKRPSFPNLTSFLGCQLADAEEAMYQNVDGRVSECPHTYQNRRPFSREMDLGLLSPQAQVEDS
Conditions: estimated, abridged dose response curve, read-out: Kinase inhibitory activity EC50. Here is the method:
as §1, §2, §3, §4, §5, §6

A further assay concerns the target T14, PLK1 (Homo sapiens, UniProt P53350).
T14 construct: purchased Invitrogen, Inc. (SelectScreen service)
Conditions: estimated, abridged dose response curve, read-out: Kinase inhibitory activity EC50. Here is the method:
as §1, §2, §3, §4, §5, §6

Another assay concerns the target T15, MAP3K9 (MLK1) (Homo sapiens, UniProt P80192).
T15 construct: purchased Invitrogen, Inc. (SelectScreen platform)
Conditions: estimated, abridged dose response curve, read-out: Kinase inhibitory activity EC50. Here is the method: as §1, §2, §3, §4, §5, §6

The next assay has as its target T16, DYRK1A (Homo sapiens, UniProt Q13627).
T16 construct: purchased Invitrogen (SelectScreen platform)
Conditions: estimated, abridged dose response curve, read-out: Kinase inhibitory activity EC50. As for the experimental part: as §1, §2, §3, §4, §5, §6

T11 sequence (P15056 416-766 V600E limits assumed): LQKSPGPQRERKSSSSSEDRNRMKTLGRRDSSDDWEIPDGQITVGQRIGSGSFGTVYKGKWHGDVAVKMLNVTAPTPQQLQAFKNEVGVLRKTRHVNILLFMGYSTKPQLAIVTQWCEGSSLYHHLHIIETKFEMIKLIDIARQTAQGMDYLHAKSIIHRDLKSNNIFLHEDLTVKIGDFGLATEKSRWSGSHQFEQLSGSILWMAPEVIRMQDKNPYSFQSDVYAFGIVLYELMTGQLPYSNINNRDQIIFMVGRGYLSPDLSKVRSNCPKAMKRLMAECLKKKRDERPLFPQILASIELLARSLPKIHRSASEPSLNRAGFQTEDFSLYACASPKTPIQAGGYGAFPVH
T7 sequence (P00519 whole entry): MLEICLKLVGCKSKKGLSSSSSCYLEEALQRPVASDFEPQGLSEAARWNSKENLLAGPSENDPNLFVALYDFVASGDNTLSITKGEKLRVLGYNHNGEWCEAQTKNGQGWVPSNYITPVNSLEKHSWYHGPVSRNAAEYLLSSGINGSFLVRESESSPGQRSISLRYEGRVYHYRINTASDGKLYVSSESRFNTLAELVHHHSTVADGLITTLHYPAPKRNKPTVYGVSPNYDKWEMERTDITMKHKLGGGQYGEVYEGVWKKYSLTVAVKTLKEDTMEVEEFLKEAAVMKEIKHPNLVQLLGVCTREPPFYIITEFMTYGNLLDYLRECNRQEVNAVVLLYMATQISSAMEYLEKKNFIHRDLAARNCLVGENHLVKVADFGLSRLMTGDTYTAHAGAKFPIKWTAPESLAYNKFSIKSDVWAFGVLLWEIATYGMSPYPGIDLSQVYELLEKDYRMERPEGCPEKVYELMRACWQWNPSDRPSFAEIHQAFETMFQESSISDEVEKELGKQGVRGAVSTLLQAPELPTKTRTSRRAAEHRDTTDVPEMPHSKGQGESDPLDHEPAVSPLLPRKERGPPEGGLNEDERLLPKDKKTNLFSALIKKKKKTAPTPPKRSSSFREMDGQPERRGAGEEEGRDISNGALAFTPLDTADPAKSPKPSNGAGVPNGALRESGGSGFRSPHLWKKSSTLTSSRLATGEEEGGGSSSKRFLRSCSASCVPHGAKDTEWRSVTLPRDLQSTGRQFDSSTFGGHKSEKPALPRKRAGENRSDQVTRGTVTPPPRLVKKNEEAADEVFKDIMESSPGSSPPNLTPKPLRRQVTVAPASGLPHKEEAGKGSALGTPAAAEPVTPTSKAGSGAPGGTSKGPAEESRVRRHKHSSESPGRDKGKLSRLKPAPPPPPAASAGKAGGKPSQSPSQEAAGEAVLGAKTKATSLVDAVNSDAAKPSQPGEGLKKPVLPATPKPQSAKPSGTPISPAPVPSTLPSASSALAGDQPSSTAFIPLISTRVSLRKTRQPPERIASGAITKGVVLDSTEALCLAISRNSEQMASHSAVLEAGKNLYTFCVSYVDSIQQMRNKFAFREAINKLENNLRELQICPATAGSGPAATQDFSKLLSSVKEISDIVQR
T14 sequence (P53350 whole entry): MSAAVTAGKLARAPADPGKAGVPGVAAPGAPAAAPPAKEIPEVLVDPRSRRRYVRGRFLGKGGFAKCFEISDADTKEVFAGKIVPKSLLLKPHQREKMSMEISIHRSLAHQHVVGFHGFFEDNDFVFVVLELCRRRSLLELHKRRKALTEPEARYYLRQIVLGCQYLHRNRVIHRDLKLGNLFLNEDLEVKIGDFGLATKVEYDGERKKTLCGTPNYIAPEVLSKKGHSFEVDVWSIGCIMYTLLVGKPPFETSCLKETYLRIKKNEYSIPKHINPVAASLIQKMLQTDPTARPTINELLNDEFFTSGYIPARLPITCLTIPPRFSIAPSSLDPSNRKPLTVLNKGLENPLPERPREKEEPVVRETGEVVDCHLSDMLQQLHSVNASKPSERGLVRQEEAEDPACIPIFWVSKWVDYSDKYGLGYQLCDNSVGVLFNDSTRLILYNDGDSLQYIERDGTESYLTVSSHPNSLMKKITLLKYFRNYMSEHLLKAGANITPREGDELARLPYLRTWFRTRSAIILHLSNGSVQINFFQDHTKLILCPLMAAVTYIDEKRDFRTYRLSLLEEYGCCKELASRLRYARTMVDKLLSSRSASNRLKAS
T5 sequence (O95819 whole entry): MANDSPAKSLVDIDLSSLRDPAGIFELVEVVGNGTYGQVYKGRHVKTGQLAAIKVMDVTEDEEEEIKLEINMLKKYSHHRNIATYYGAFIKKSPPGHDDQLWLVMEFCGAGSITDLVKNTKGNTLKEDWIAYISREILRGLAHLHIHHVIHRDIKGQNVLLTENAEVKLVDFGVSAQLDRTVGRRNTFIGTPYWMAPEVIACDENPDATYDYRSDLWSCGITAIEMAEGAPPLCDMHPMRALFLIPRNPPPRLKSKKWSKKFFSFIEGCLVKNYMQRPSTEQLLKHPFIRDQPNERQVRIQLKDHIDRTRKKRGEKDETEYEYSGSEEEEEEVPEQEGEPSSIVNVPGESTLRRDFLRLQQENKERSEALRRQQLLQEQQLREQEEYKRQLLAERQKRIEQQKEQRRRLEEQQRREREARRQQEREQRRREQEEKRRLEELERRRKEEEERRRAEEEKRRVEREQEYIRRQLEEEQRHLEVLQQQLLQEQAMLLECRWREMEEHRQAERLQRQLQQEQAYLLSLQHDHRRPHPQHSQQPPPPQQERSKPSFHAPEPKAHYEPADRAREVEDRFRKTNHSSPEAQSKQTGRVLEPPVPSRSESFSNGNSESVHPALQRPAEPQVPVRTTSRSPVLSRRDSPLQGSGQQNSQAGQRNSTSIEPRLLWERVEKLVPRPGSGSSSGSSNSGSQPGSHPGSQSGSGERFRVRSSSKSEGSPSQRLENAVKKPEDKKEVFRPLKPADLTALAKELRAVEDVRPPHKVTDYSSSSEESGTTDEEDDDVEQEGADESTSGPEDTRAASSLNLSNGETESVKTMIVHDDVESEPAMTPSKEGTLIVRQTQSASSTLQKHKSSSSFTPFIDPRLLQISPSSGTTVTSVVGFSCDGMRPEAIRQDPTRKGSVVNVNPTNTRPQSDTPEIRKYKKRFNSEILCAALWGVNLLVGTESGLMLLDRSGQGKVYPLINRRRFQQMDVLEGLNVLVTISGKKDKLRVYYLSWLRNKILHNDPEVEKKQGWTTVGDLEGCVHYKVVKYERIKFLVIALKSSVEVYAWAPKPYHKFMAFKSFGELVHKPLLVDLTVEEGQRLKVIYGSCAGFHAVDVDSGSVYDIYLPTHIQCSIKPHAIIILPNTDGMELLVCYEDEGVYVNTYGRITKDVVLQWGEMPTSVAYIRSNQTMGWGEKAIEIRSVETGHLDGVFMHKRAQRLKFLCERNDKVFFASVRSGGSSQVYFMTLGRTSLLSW
T10 sequence (Q9HC98 whole entry): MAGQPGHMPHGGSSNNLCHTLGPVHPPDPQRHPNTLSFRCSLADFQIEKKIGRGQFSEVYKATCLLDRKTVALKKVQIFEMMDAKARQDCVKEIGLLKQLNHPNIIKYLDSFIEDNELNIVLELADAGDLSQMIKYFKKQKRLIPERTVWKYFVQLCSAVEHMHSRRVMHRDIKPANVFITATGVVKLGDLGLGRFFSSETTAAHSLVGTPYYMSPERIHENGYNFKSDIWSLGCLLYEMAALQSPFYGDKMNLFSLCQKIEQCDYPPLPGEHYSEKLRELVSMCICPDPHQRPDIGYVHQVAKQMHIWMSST
T2 sequence (P07949 29-1114): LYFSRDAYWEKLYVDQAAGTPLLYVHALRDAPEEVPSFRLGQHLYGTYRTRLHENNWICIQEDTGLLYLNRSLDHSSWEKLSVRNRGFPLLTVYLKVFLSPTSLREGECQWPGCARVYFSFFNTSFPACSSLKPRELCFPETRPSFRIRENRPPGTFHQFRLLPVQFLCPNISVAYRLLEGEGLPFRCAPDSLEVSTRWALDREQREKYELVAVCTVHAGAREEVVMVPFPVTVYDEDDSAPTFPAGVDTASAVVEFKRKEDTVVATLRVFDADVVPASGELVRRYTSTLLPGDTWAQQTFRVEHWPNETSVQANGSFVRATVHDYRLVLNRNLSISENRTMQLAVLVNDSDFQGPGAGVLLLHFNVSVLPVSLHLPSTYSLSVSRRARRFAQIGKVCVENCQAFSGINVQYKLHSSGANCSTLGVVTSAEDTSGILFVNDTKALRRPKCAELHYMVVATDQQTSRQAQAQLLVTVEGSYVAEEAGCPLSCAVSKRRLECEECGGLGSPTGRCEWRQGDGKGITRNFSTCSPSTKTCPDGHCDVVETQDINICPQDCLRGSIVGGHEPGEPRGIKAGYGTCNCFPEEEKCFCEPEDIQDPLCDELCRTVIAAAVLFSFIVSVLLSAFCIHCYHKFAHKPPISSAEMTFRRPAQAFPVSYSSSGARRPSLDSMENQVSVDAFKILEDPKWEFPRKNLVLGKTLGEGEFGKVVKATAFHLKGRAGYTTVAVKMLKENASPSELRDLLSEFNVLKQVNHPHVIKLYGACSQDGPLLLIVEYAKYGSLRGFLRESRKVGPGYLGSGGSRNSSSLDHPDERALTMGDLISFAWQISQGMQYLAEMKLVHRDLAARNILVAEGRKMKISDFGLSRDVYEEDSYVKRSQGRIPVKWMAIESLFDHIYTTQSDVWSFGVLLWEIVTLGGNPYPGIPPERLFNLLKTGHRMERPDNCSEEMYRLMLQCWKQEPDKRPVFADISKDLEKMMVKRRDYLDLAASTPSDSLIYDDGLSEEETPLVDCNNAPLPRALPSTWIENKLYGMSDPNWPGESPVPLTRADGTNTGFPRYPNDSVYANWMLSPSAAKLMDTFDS

As to `CN(C)CCCNc1ccc2ncn3c4ccc5[nH]ncc5c4c(=O)c1c23` [Compound (IV)], the pEC50 on DYRK1B was 6.09; at RET it was 6.23; at FES (FPS), 5.65; at PRKD1 (PKC mu, PKD1) it was 6.31; on MAP4K4 (HGK, ZC1), below 5.30; on DYRK3, 6.42. The pEC50 is 5.42 at ABL1; 6.66 on CAMK2D (CaMKII delta); below 5.30 on GRK5 (GRK5, estimated, abridged dose response curve, read-out: Kinase inhibitory activity EC50); below 5.30 on NEK6; 5.93 on BRAF V599E; below 5.30 on MAPK1 (ERK2). Moreover, the pEC50 at FLT3 is 8.10; at PLK1 it was below 5.30; on MAP3K9 (MLK1) it was below 5.30; at DYRK1A it was 6.33.

In the case of `CCN(CC)CCNc1ccc2ncn3c4ccc(O)cc4c(=O)c1c23` [Symadex, 5-(2-(diethylamino)ethylamino)-8-hydroxy-6H-imidazo[4,5,1-de]acridin-6-one, reference compound], the pEC50 was 6.00 on DYRK1B; 5.95 at RET; 5.98 on FES (FPS); 6.66 on PRKD1 (PKC mu, PKD1); 5.50 on MAP4K4 (HGK, ZC1); 6.21 at DYRK3. Besides, the pEC50 on ABL1 was below 5.30; at CAMK2D (CaMKII delta), 5.69; at GRK5, below 5.30; at NEK6, below 5.30; at BRAF V599E, 5.47; at MAPK1 (ERK2), below 5.30. For the same molecule, the pEC50 on FLT3 was 7.82; at PLK1, below 5.30; at MAP3K9 (MLK1) it was below 5.30; at DYRK1A it was 6.15.
